Reference: patent US10314785B2, “Sterile pharmaceutical compositions” (NORTON HEALTHCARE LTD, priority 2004, dated 2019)
Converted amounts (≈) assume the structure as drawn.

Legend:
[1] = Heat sterilization of beclomethasone dipropionate concentrates: content, impurities, particle size; type: physicochemical; conditions: 121/30, data not shown
Experimental: Determination of impurity levels and particle size were also determined as outlined above.

[2] = suspensions sterilized by a wet steam process; cited from earlier work
[3] = Water solubility of budesonide at sterilizing temperatures; type: physicochemical
Experimental: A balance is required between the solubility of the glucocorticosteroid and the amount of the glucocorticosteroid used per unit of solvent such that at least 50% of the glucocorticosteroid is suspended in the solvent. For example, for budesonide, at the sterilizing temperatures used herein the water solubility is about 7 mg/ml. Therefore, using 15 mg of budesonide per […] provides 53% of budesonide as a suspension. Preferably at least 60% of the glucocorticosteroid is suspended in the solvent although this value could be at least 70% or at least 80%.

Compound | change in beclomethasone content upon heating in the autoclave [1] | change in particle size distribution on autoclaving [1] | increase in impurities upon heating in the autoclave [1] | decrease in active ingredient content [2] | increase in degradation products [2] | fraction of budesonide suspended ([3]; using 15 mg of budesonide per 1 mg water) | solubility ([3]; water, at the sterilizing temperatures used herein)
CCC(=O)OCC(=O)[C@@]1(OC(=O)CC)[C@@H](C)C[C@H]2[C@@H]3CCC4=CC(=O)C=C[C@]4(C)[C@@]3(Cl)[C@@H](O)C[C@@]21C [beclomethasone, beclomethasone dipropionate] | no significant change | no significant change | no significant change in beclomethasone content or increase in impurities | 8-9% | 10-11% | – | –
CCCC1O[C@@H]2C[C@H]3[C@@H]4CCC5=CC(=O)C=C[C@]5(C)[C@H]4[C@@H](O)C[C@]3(C)[C@]2(C(=O)CO)O1 (stereo partly shown) [budesonide] | – | – | – | – | – | 53% | ~7000 µg/mL (≈ 16.3 mM)
